Patent US10709712B2, “Biaryl amide compounds as kinase inhibitors” (NOVARTIS AG, priority 2013, dated 2020)

How the values were obtained:
[1] = molecular target: b-Raf(V600E) (Homo sapiens (Human), UniProt P15056, V600E); details: read-out: b-Raf IC-50; Table 2; Alpha Screen phospho-MEK, reaction 3 hours
[2] = molecular target: C-Raf FL (full-length C-Raf protein) (Homo sapiens (Human), UniProt P04049, Y340E/Y341E); assay type: biochemical; details: Table 2, Alpha Screen phospho-MEK, reaction 1 hour, read-out: c-Raf FL IC-50

b-Raf(V600E), sequence (P15056 whole entry V600E): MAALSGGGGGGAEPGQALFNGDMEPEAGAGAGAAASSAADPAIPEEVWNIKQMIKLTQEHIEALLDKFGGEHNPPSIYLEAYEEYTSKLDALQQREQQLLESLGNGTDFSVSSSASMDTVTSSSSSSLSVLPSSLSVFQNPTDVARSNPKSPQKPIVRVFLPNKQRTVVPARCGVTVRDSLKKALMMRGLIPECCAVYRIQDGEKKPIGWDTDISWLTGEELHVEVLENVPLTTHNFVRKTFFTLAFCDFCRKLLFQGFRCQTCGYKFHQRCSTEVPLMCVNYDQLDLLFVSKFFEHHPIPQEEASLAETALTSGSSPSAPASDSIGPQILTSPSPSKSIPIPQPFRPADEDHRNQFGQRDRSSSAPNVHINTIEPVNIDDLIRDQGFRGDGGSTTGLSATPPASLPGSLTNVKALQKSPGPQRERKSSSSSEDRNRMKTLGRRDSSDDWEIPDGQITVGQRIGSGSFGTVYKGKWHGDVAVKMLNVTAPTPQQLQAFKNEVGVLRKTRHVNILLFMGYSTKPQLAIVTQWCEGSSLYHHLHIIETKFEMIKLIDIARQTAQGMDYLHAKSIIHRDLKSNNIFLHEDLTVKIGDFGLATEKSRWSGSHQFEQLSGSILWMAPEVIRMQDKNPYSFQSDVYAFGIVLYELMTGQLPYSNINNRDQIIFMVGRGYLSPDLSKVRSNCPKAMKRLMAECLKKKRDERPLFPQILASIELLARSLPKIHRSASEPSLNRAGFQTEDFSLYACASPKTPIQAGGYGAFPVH

| IC50 [1] [nM] | IC50 [2] [nM] | Molecule |
| --- | --- | --- |
| 3.7 |  | Cc1ncc(NC(=O)c2cccc(C(F)(F)F)c2)cc1-c1cc(N2CCOCC2)nc(NC[C@@H](C)O)n1 [Example 743, (R)—N-(5-(2-((2-hydroxypropyl)amino)-6-morpholinopyrimidin-4-yl)-6-methylpyridin-3-yl)-3-(trifluoromethyl) benzamide] |
| 0.6 |  | N-(4-methyl-3-(5-morpholino-6-((tetrahydro-2H-pyran-4-yl)oxy)pyridazin-3-yl) phenyl)-6-(trifluoromethyl) pyridazine-4-carboxamide [Example 577] |
|  | 0.2 | N-(4-methyl-3-(7-morpholino-2-oxo-2,3-dihydrobenzo[d]oxazol-5-yl) phenyl)-3-(trifluoromethyl) benzamide [Example 827] |
